Source: patent publication US20240216395A1, “19-NOR C3,3-DISUBSTITUTED C21 -N-PYRAZOLYL STEROID FOR USE IN TREATING MAJOR DEPRESSIVE DISORDER AND […]” (priority 2021, published 2024)

Assays:
[1] = test system: patients with MDD; assay: Phase 2 clinical trial of Compound (1) 30 mg in MDD (NCT03000530): TEAEs; assay type: in vivo, human
Description: The study design and results, if applicable, of the clinical trials identified by the NCT numbers are each incorporated by reference herein in its entirety.
(§1) The majority of patients receiving Compound (1) and experiencing a TEAE reported TEAEs mild and moderate in severity: clinical trial of Example 4 94%, Phase 2 clinical trial conducted by Applicant 100%, previous Phase 3 clinical trial conducted by Applicant 98%, and clinical trial of Example 1 95.0%.

[2] = test system: nondependent, recreational users of CNS depressants; assay: Abuse potential main study, treatment phase: subjective VAS measures (Drug Liking, Overall Drug Liking, Take Drug Again, High, Good/Bad/Any Drug Effects, Alertness/Drowsiness, Drug Similarity)
[3] = test system: patients with PPD or MDD; assay: Most common TEAEs across clinical trials in PPD or MDD: overall ranges; assay type: in vivo, human; details: 30 or 50 mg (N = 583)
Description: as §1

[4] = Alprazolam 1.5 mg - Compound (1) 30 mg
[5] = Alprazolam 1.5 mg - Compound (1) 30 mg (relative abuse potential)
[6] = Alprazolam 1.5 mg - Compound (1) 60 mg
[7] = Alprazolam 1.5 mg - Compound (1) 60 mg (relative abuse potential)
[8] = Alprazolam 1.5 mg - Compound (1) 90 mg
[9] = Alprazolam 1.5 mg - Compound (1) 90 mg (relative abuse potential)
[10] = Alprazolam 3 mg - Compound (1) 30 mg
[11] = Alprazolam 3 mg - Compound (1) 30 mg (relative abuse potential)
[12] = Alprazolam 3 mg - Compound (1) 60 mg
[13] = Alprazolam 3 mg - Compound (1) 60 mg (relative abuse potential)
[14] = Alprazolam 3 mg - Compound (1) 90 mg
[15] = Alprazolam 3 mg - Compound (1) 90 mg (relative abuse potential)
[16] = Compound (1) 30 mg - placebo (absolute abuse potential)
[17] = Compound (1) 60 mg - placebo (absolute abuse potential)
[18] = Compound (1) 90 mg - placebo (absolute abuse potential)

C[C@@]1(O)CC[C@H]2[C@H](CC[C@@H]3[C@@H]2CC[C@]2(C)[C@@H](C(=O)Cn4cc(C#N)cn4)CC[C@@H]32)C1 [Compound (1), 1-(2-((3R,5R,8R,9R,10S,13S,14S,17S)-3-hydroxy-3,13-dimethylhexadecahydro-1H-cyclopenta[a]phenanthren-17-yl)-2-oxoethyl)-1H-pyrazole-4-carbonitrile]
Diarrhea ([1]; 30 mg (N = 45)): 0 n (%) | URTI ([1]; 30 mg (N = 45)): 0 n (%) | Patients with a TEAE whose TEAEs were mild and moderate in severity ([1]; Phase 2 clinical trial): 100% | Alert/Drowsiness VAS: time scores remained below neutral value of 50 ([2]; 30 mg): 6-7 hours postdose | Alert/Drowsiness VAS: time scores remained below neutral value of 50 ([2]; 60 and 90 mg): 8-10 hours postdose | Drug Liking Emax difference [2, 4]: 12.50 | Overall Drug Liking Emax difference [2, 4]: 13.92 | Take Drug Again Emax difference [2, 4]: 13.67 | Bad Drug Effects Emax difference [2, 5]: 0 | Good Drug Effects Emax difference [2, 5]: 24.62 | High Effects Emax difference [2, 5]: 24.59 | Drug Liking Emax difference [2, 6]: 2.00 | Overall Drug Liking Emax difference [2, 6]: 5.63 | Take Drug Again Emax difference [2, 6]: 0 | Bad Drug Effects Emax difference [2, 7]: 0 | Good Drug Effects Emax difference [2, 7]: 0.00 | High Effects Emax difference [2, 7]: 7.57 | Drug Liking Emax difference [2, 8]: −3.55 | Overall Drug Liking Emax difference [2, 8]: 1.12 | Take Drug Again Emax difference [2, 8]: 0 | Bad Drug Effects Emax difference [2, 9]: −12.93 | Good Drug Effects Emax difference [2, 9]: −12.00 | High Effects Emax difference [2, 9]: −12.00 | Drug Liking Emax difference [2, 10]: 14.00 | Overall Drug Liking Emax difference [2, 10]: 14.62 | Take Drug Again Emax difference [2, 10]: 16.43 | Bad Drug Effects Emax difference [2, 11]: 1.00 | Good Drug Effects Emax difference [2, 11]: 33.48 | High Effects Emax difference [2, 11]: 32.45 | Drug Liking Emax difference [2, 12]: 2.50 | Overall Drug Liking Emax difference [2, 12]: 6.33 | Take Drug Again Emax difference [2, 12]: 7.15 | Bad Drug Effects Emax difference [2, 13]: 1.00 | Good Drug Effects Emax difference [2, 13]: 7.50 | High Effects Emax difference [2, 13]: 15.42 | Drug Liking Emax difference [2, 14]: 0.00 | Overall Drug Liking Emax difference [2, 14]: 1.82 | Take Drug Again Emax difference [2, 14]: 0 | Bad Drug Effects Emax difference [2, 15]: −1.82 | Good Drug Effects Emax difference [2, 15]: −1.00 | High Effects Emax difference [2, 15]: −4.14 | Drug Liking Emax difference ([2]; Compound (1) 30 mg - placebo): 12.00 | Overall Drug Liking Emax difference ([2]; Compound (1) 30 mg - placebo): 6.50 | Take Drug Again Emax difference ([2]; Compound (1) 30 mg - placebo): 9.00 | Bad Drug Effects Emax difference [2, 16]: 0 | Good Drug Effects Emax difference [2, 16]: 19.98 | High Effects Emax difference [2, 16]: 19.21 | Drug Liking Emax difference ([2]; Compound (1) 60 mg - placebo): 18.12 | Overall Drug Liking Emax difference ([2]; Compound (1) 60 mg - placebo): 16.75 | Take Drug Again Emax difference ([2]; Compound (1) 60 mg - placebo): 18.57 | Bad Drug Effects Emax difference [2, 17]: 0 | Good Drug Effects Emax difference [2, 17]: 40.53 | High Effects Emax difference [2, 17]: 36.23 | Drug Similarity: Benzodiazepines Similarity median score ([2]; Compound (1) 90 mg): 92.5 | Drug Similarity: Opioids Similarity median score ([2]; Compound (1) 90 mg): 39.0 | Drug Liking Emax difference ([2]; Compound (1) 90 mg - placebo): 25.00 | Overall Drug Liking Emax difference ([2]; Compound (1) 90 mg - placebo): 21.27 | Take Drug Again Emax difference ([2]; Compound (1) 90 mg - placebo): 24.50 | Bad Drug Effects Emax difference [2, 18]: 0 | Good Drug Effects Emax difference [2, 18]: 59.00 | High Effects Emax difference [2, 18]: 55.80 | Drug Similarity: Placebo Similarity median score ([2]; all dosages, 12 hours postdose): zero | Any TEAE, overall range across trials [3]: 53.3-60.3% | Diarrhea, overall range across trials [3]: 0-6.4% | Dizziness, overall range across trials [3]: 5.7-13.8% | Fatigue, overall range across trials [3]: 1.1-6.8% | Headache, overall range across trials [3]: 6.3-17.8% | Nausea, overall range across trials [3]: 3.6-11.1% | Sedation, overall range across trials [3]: 4.4-7.5% | Somnolence, overall range across trials [3]: 6.7-15.4% | URTI, overall range across trials [3]: 0-7.7%
